# From US20120276098A1, “DRUG FUSIONS AND CONJUGATES WITH EXTENDED HALF LIFE” (priority 2009, published 2012)
# Read-outs that look alike come from different tables or passages of the source. Marks after values point to notes of the source that are not given here.
# Columns and labels:
# GLP1R [1] = target: T1, GLP1R (Mus musculus, UniProt O35659); test: melanophore functional bioassay, mouse GLP1R; type: cell-based; details: melanophores transfected with receptor
# T1 construct: expressed in transfected cells; host or cells: melanophores
# T1 sequence (O35659 22-463): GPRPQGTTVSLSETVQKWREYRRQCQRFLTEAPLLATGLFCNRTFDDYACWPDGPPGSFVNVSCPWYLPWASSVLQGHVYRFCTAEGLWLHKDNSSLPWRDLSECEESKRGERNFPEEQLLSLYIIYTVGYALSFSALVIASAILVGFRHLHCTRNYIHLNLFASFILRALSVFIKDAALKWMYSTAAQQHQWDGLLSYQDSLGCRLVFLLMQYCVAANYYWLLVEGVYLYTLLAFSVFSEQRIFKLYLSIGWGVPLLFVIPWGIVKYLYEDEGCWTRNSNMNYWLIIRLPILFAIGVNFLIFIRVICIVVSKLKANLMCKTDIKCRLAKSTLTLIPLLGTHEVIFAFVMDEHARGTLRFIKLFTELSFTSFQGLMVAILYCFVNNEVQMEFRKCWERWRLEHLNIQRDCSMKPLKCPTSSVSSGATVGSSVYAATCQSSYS
# Method: (§1) The bioassay was performed essentially as described in Jayawickreme et al. (2005) Current Protocols in Pharmacology 12.9.1-12.9.16.
# db/db C57BL/6J mice = test: Chronic diabetes efficacy study in db/db mice, peptide-AlbudAbs alone and combined; type: in vivo, mouse; details: for decrease in glycosylated HbAlc: baseline vs day 16; for plasma insulin levels: day 16
# Method: Male db/db C57BL/6J mice (Jackson Labs, Bar Harbor, Me.) were used for all experiments. The db/db mice (B6.Cg-m +/+ Leprdb/J) and controls were group-housed by the vendor. The db/db mice (10-12 weeks of age), and age-matched controls were shipped to GSK where they were single-housed and maintained at constant temperature (approximately 22° C.) with 12 hr light/dark cycle (lights on from 5:00 AM to 5:00 PM). Mice were given ad libitum access to food (LabDiet 5K67, 16% fat for db/db and their controls) and water. All animal protocols were approved by the institutional animal care and use committee at GlaxoSmithKline in Research Triangle Park, N.C. The peptide-AlbudAbs were prepared fresh daily. The correct dosing concentration of the drug was obtained by diluting the master stock using a citrate vehicle buffer comprised of 100 mM NaCl, 20 mM citric acid, pH 6.2 (filter sterilized). For combination dosing, the drugs were mixed together so that only one injection would be required.
# Chronic Diabetes Efficacy Studies: The db/db mice and age-matched lean controls were habituated in house 2 weeks before the start of the study. Animals were dosed every two days between 2-4 pm subcutaneously with a dose volume of 5 ml/kg over a period of 15 days. A three day vehicle lead in period was used before the start of drug with the first day being vehicle and the second two days being mock injections. Baseline fat mass and lean mass measurements were taken 3 days before the start of drug and on day 15 using a QMR instrument (Echo Medical Systems, Houston, Tex.) Body weight measurements were taken every Monday, Wednesday, and Friday starting four days before the first drug dose. […] Food hopper weights were measured every weekday starting 4-6 days before the first drug dose, allowing for the calculation of food intake. Animals that created excessive food spillage were removed prior to the beginning of the study. During the study, excess food was removed from the cage and added to the food hopper weights for increased accuracy. Eight animals (n=8) were used for the lean control group and eight animals (n=8) were used for all other treatment groups. A pair-fed control was included in which the daily food intake for the combination ED80 group was calculated and that amount of food was given to the pair-fed group to eat the next day. Sixteen days after the start of drug treatment, animals were fasted for at least 4 hours before collection of whole blood, plasma, and serum samples via terminal cardiac exsanguinations. The whole blood was used to determine the % HbAlc, the plasma was used for a gastrointestinal hormone panel, and the serum was used to access multiple chemistries. Finally, major organs and tissues were collected (heart, kidney, liver, lung, stomach, duodenum, colon, pancreas, brown adipose, white adipose, carcass) on day 16 and fixed in 10% neutral buffered formalin for macroscopic and microscopic histological examination.
# [2] = system: diet induced obese (DIO) C57BL/6 mice; test: Chronic obesity efficacy study in diet induced obese (DIO) mice, peptide-AlbudAbs alone and combined; type: in vivo, mouse
# Method: Male diet induced obese (DIO) C57BL/6 mice (Taconic, Hudson, N.Y.) and lean C57BL/6 mice (Taconic, Hudson, N.Y.) were used for all experiments. DIO C57BL/6 mice were group housed and fed a high fat diet (45% fat by kcal) by the vendor from the time of weaning. DIO mice (40-50 g body weight) and age-matched controls were single-housed and maintained at constant temperature (approximately 22° C.) with 12 hr light/dark cycle (lights on from 5:00 AM to 5:00 PM). Mice were given ad libitum access to food (Research Diets D12451, 45% fat for DIO; Lab Diet 5001, 13.5% fat for lean) and water. All animal protocols were approved by the institutional animal care and use committee at GlaxoSmithKline in Research Triangle Park, N.C. The peptide-AlbudAbs were either prepared fresh daily or were prepared once and frozen at −70 deg C. in aliquots. For combination dosing, the drugs were mixed together so that only one injection would be required.
# Chronic Obesity Efficacy Studies: DIO C56BL/6 mice and age-matched lean controls were habituated in house for 6 weeks before the start of the study. Animals were dosed every two days between 2-4 pm subcutaneously with a dose volume of 5 ml/kg over a period of 15 days.
# A three day vehicle lead in period was used before the start of drug with the first day being vehicle and the second two days being mock injections. Baseline fat mass and lean mass measurements were taken 3-4 days before the start of drug and on day 15 using a QMR instrument (Echo Medical Systems, Houston, Tex.) Body weight measurements were taken every Monday, Wednesday, and Friday starting four days before the first drug dose, with the first measurement being used to randomize the animals. Food hopper weights were measured every weekday starting 4-6 days before the first drug dose, allowing for the calculation of food intake. Animals that created excessive food spillage were removed prior to the beginning of the study. During the study, excess food was removed from the cage and added to the food hopper weights for increased accuracy. Eight to ten animals (n=8-10) were used for the lean control group and eight animals (n=8) were used for all other treatment groups. Sixteen days after the start of drug treatment, animals were fasted for at least 4 hours before collection of whole blood, plasma, and serum samples via terminal cardiac exsanguinations. The whole blood was used to determine the % HbAlc, the plasma was used for a gastrointestinal hormone panel, and the serum was used to access multiple clinical chemistry parameters. Finally, major organs and tissues were collected (heart, kidney, liver, lung, stomach, duodenum, colon, pancreas, brown adipose, white adipose, carcass) on day 16 and fixed in 10% neutral buffered formalin for macroscopic and microscopic histological examination.
# GLP1R [3] = target: T2, GLP1R (Homo sapiens, UniProt P43220); test: GLP-1 receptor binding assay (GLP-1R BA), CHO 6CRE GLP1R luciferase reporter cells; type: cell-based; set-up: expressed in transfected cells; host or cells: CHO K1 (CHO 6CRE GLP1R cells)
# T2 sequence (P43220 24-463): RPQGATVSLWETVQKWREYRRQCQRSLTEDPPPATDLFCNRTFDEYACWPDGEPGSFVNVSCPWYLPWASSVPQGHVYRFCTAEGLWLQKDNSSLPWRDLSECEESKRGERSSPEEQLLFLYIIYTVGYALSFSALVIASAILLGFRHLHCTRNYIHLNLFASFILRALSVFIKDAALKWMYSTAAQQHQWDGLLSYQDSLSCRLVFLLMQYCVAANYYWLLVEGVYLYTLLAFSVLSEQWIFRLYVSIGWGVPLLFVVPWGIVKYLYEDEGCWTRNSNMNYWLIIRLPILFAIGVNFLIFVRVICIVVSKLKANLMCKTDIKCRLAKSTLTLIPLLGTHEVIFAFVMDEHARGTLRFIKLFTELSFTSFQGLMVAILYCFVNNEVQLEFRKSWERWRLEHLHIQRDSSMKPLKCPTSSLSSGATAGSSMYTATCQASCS
# Method: Fusions were buffer exchanged into 100 mM […], 20 mM citrate pH 6.2. Meanwhile,CHO 6CRE GLP1R cells (CHO K1 cells (obtainable from the American Type Tissue Collection, ATCC) stably transfected with 6 cAMP response element driving a luciferase reporter gene and also with the human GLP-1 receptor) were seeded at 2×10^5cells/mL in suspension media. Suspension culture was maintained for 24 hours. Cells were then diluted into 15 mM HEPES buffer (obtainable from Sigma), containing 2 mM L glutamine (2.5×10^5 cells/ml) and dispensed into 384-well plates containing 10 ul/well of the compound to be assayed. After the addition of assay control, plates were returned to the incubator for 3 h at 37° C. and 5% CO2. […] Plates were placed in the reader (Viewlux, Perkin Elmer) and pre-incubated for 5 minutes prior to reading the […] and plotting of results. Compound was assayed at a range of concentrations in the presence and absence of 10 uM albumin, allowing a dose response curve to be fitted with and without the albumin.
# GLP1R [4] = target: T2, GLP1R; test: melanophore functional bioassay, human GLP1R; type: cell-based; set-up: expressed in transfected cells; host or cells: melanophores; details: melanophores transfected with receptor
# Method: as §1
# [5] = target: Human serum albumin (HSA) (Homo sapiens, UniProt P02768); type: binding
# Method: (§2) The analysis was performed using a CM5 Biacore chip (carboxymethylated dextran matrix) that was coated with serum albumin. About 1000 resonance units (RUs) of each serum albumin to be tested (human, rat and mouse serum albumin) was immobilised in acetate buffer pH 5.5. Flow cell 1 of the Biocore AB was an uncoated, blocked negative control, flow cell 2 was coated with Human serum albumin (HSA) (815 RUs) flow cell 3 was coated with Rat serum albumin (RSA)(826RUs) and flow cell 4 was coated with Mouse serum albumin (MSA) (938 RUs). Each fusion molecule tested was expressed in mammalian tissue culture as described in the example above.
# (§3) A range of concentrations of the fusion molecule were prepared (in the range 16 nM to 2 μM) by dilution into BIACORE HBS-EP buffer (0.01 M HEPES, pH7.4, 0.15 M NaCl, 3 mM EDTA, 0.005% surfactant P20) and flowed across the BIACORE chip.
# (§4) Affinity (KD) was calculated from the BIACORE traces by fitting on-rate and off-rate curves to traces generated by concentrations of dAb in the region of the KD.
# [6] = target: Mouse serum albumin (MSA) (Mus musculus, UniProt P07724); type: binding
# Sequence of Mouse serum albumin (MSA) (P07724 25-608): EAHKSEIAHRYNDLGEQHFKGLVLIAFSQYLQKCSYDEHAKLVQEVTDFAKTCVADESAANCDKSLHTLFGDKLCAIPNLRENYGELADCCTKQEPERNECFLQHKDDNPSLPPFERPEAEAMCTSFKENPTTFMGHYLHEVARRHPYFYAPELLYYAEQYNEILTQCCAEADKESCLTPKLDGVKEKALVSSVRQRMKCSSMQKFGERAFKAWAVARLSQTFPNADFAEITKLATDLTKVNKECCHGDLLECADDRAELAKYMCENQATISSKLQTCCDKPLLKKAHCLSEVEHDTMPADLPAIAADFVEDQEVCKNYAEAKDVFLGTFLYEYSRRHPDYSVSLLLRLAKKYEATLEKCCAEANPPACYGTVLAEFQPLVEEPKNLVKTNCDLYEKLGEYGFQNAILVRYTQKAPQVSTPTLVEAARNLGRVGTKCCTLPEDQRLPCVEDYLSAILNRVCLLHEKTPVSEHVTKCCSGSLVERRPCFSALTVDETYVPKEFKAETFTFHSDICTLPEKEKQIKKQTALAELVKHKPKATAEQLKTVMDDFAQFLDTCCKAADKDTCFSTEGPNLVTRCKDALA
# Method: as §2, §3, §4
# Rat serum albumin (RSA) = Rat serum albumin (RSA) (Rattus norvegicus, UniProt P02770); type: binding
# Sequence of Rat serum albumin (RSA) (P02770 25-608): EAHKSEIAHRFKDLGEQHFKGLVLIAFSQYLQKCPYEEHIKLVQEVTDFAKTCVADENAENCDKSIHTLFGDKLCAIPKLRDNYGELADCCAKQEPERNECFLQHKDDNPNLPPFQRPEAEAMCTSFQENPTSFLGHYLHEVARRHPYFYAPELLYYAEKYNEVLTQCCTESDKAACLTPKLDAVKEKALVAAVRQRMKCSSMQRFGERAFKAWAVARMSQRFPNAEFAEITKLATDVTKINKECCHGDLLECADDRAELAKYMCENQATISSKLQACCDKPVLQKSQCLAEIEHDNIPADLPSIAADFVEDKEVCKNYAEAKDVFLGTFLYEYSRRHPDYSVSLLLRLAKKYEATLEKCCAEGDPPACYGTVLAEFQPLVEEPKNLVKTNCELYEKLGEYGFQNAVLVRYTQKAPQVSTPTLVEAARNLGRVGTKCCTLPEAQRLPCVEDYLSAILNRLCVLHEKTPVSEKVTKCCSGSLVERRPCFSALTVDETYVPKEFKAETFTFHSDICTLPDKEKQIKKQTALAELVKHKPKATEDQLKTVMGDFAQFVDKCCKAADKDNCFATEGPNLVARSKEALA
# Method: as §2, §3, §4
# [7] = ED20 doses: PYY-AlbudAb 0.1 mg/kg, Exendin-4-AlbudAb 0.01 mg/kg, Combo ED20
# [8] = ED80 Doses: PYY-Alb 1.0 mg/kg, Exn-Alb 0.1 mg/kg, Combo
# [9] = day 16, ED80 doses: Exendin-4-AlbudAb 0.1 mg/kg, Combo ED80
# [10] = read-out: GLP-1R BA (10 uM albumin) EC50 (pM) n = 2, presence of 10 uM albumin
# [11] = read-out: GLP-1R BA EC50 (pM) n = 3, absence of albumin
substance,measurement,setting,value
"DAT 0115: genetic fusion: exendin-4, (G4S)3 linker, 7h-14 AlbudAb, SEQ ID NO 2",pEC50 Mouse GLP1R,GLP1R [1],11.06
same,inhibition of weight gain (in words),"db/db C57BL/6J mice; PYY-AlbudAb 1.0 mg/kg, Exendin-4-AlbudAb 0.1 mg/kg, Combo ED80",effective at inhibiting weight gain
same,decrease in glycosylated HbAlc,db/db C57BL/6J mice; [7],no significant changes
same,decrease in glycosylated HbAlc,"db/db C57BL/6J mice; ED80 doses: PYY-AlbudAb 1.0 mg/kg, Exendin-4-AlbudAb 0.1 mg/kg, Combo ED80",0.80%
same,decrease in body weight from vehicle,"db/db C57BL/6J mice; day 15, ED80 doses: PYY-AlbudAb 1.0 mg/kg, Exendin-4-AlbudAb 0.1 mg/kg, Combo ED80",9.2%
same,decrease in body weight relative to vehicle control,"db/db C57BL/6J mice; day 15, PYY-AlbudAb 0.1 mg/kg, Exendin-4-AlbudAb 0.01 mg/kg",no significant effect
same,plasma insulin levels,db/db C57BL/6J mice; [7],trends towards increases
same,plasma insulin levels,"db/db C57BL/6J mice; ED80 doses: PYY-AlbudAb 1.0 mg/kg, Exendin-4-AlbudAb (dose not given), Combo ED80",32036 pg/mL
same,decrease in percent body fat (normalized to changes in vehicle controls),"[2]; 15 day treatment, ED20 doses: PYY-AlbudAb 0.1 mg/kg, Exendin-4-AlbudAb 0.01 mg/kg, Combo ED20",0.6%
same,decrease in percent body fat,"[2]; 15 day treatment, ED80 doses: PYY-AlbudAb 1.0 mg/kg, Exendin-4-AlbudAb 0.1 mg/kg, Combo ED80",6.8%
same,Insulin % Change from DIO Vehicle,"[2]; ED80 Doses: Exn-Alb 0.1 mg/kg, Combo",↓-56%
same,ALT % Change from DIO Vehicle,[2]; [8],↓-57%*
same,AST % Change from DIO Vehicle,[2]; [8],↓-41%*
same,Creatinine % Change from DIO Vehicle,[2]; [8],↓-17%*
same,Glucose % Change from DIO Vehicle,[2]; [8],↓-27%*
same,Total Bilirubin % Change from DIO Vehicle,[2]; [8],↑21%*
same,Total Cholesterol % Change from DIO Vehicle,[2]; [8],↓-24%*
same,Ghrelin levels,"[2]; Exendin-4-AlbudAb monotherapy groups, level approximately equal to the combination groups",elevated
same,decrease in body weight relative to vehicle,"[2]; day 7, ED80 doses: PYY-AlbudAb 1.0 mg/kg, Exendin-4-AlbudAb 0.1 mg/kg, Combo ED80 = both mixed",13.0%
same,inhibition of feeding / food intake,"[2]; day 14, ED80 doses: PYY-AlbudAb 1.0 mg/kg, Exendin-4-AlbudAb 0.1 mg/kg, Combo ED80",0.8%
same,decrease in body weight vs. vehicle,"[2]; day 15, ED20 doses: PYY-AlbudAb 0.1 mg/kg, Exendin-4-AlbudAb 0.01 mg/kg, Combo ED20 = both mixed, s.c. every two days",4.5%
same,decrease in body weight from vehicle,"[2]; day 15, ED80 doses: PYY-AlbudAb 1.0 mg/kg, Exendin-4-AlbudAb 0.1 mg/kg, Combo ED80 = both mixed",16.8%
same,microscopic change in brown adipose tissue (histopathology),"[2]; day 16, Combo ED20, Exendin-4-AlbudAb 0.01 mg/kg",decreased cytoplasmic lipid droplets
same,microscopic change in brown adipose tissue (histopathology),"[2]; day 16, Combo ED80, PYY-AlbudAb 1.0 mg/kg, Exendin-4-AlbudAb 0.1 mg/kg, Exendin-4 0.1 mg/kg",decreased cytoplasmic lipid droplets
same,Amylin levels in plasma,[2]; [9],163 pg/mL
same,Leptin levels in plasma,[2]; [9],31.4 ng/mL
same,fat mass lost,"[2]; treatment period, ED20 doses: PYY-AlbudAb 0.1 mg/kg, Exendin-4-AlbudAb (dose not given), Combo ED20",1.4 grams
same,body fat lost,"[2]; treatment period, ED80 doses: PYY-AlbudAb 1.0 mg/kg, Exendin-4-AlbudAb (dose not given), Combo ED80",5.7 grams
same,EC50,GLP1R [3]; [10],38 pM
same,EC50,GLP1R [3]; [11],8 pM
same,pEC50 Human GLP1R,GLP1R [4],11.36
"DAT 0116: Exendin 4 DOM7h-14 fusion, SEQ ID NO 3",EC50,GLP1R [3]; [10],72 pM
same,EC50,GLP1R [3]; [11],12 pM
"DAT 0117: Exendin 4, helical linker, DOM7h-14 fusion (Table 3), SEQ ID NO 4; Table 2 calls it 2xGLP-1 (7-37) A8G DOM7h-14 fusion",Kd,[5],150000 pM
same,Kd,[6],130000 pM
same,Kd,Rat serum albumin (RSA),700000 pM
same,EC50,GLP1R [3]; [10],15 pM
same,EC50,GLP1R [3]; [11],4 pM
